Laboratory results published in PMC10846240, “Pharmacokinetic/pharmacodynamic integration of amphenmulin: a novel pleuromutilin derivative against Mycoplasma gallisepticum” (Microbiology Spectrum, 2023).
In brackets after ≈: the same amount, converted by molar mass. Several values for one entry are separate records, joined by “and”; a condition that tells them apart may be missing. Equal entries are not always repeated. Where two headings read alike, the source gives them in different places.

Legend:
[1] = In vivo pharmacokinetics of amphenmulin in chickens (IV, IM, PO); conditions: for Cmax: mean ± SD, n = 10; for bioavailability: read-out: F (absolute bioavailability)
Protocol: The M. gallisepticum standard strain S6 was obtained from the National Center for Veterinary Culture Collection (Beijing, China). Amphenmulin (98%) was synthesized by our laboratory according to the published methods ([10]). Acetonitrile and all other liquid chemicals used were purchased from Macklin Biochemical Technology Co., Ltd (Shanghai, China). M. gallisepticum in this study was cultured under standard conditions of 37°C with the following nutrients: swine serum, M. gallisepticum artificial medium base from Qingdao Hope Biological Technology Co., Ltd (Qingdao, China), nicotinamide adenine dinucleotide (NADH) and cysteine from Aladdin Biochemical Technology Co., Ltd (Shanghai, China). Thirty healthy adult yellow-feathered broilers weighing 1.58 to 2.04 kg were used in this study, caged, fed without antibiotics and anticoccidial drugs, and watered and fed ad libitum. All animal experimental procedures were approved by the Animal Ethics Committee of South China Agricultural University (Approval number: 2023a015).
In this study, the dose design for the administration of amphenmulin was mainly based on the previous study report on tiamulin ([15]). The chickens were randomly divided into three groups (10 per group) and given a single dose of 20 mg/kg of body weight (bw.) of amphenmulin via intravenous, intramuscular injection, and oral gavage, respectively. Blood samples were collected from the brachial wing vein of each chicken at 0, 5, 10, 15, 30, 45 min, 1, 2, 3, 4, 6, 8, 10, 12, 24 h after intravenous injection, and at 0, 3, 6, 9, 12, 20, […], 45 min, 1, 2, 4, 8, 12, 24 h after oral and intramuscular administrations. The blood samples were centrifuged at 3,500 rpm for 10 min. The plasma was collected and stored at −20°C until analysis.
After the plasma samples were restored to room temperature, 200 µL was taken and vortexed with 800 µL of acetonitrile, centrifuged at 12,000 rpm for 10 min. The supernatant was filtered through a 0.22-µm filter and analyzed using a high-performance liquid chromatography-tandem mass spectrometry (HPLC-MS/MS) system (Agilent 1200 HPLC and Applied Biosystem API4000 mass spectrometer, ABI Sciex, USA). Amphenmulin was separated on a C18 column (150 mm × 2 mm, 5 µm) at a flow rate of 0.5 mL/min, with a mobile phase of 0.1% aqueous formic acid and acetonitrile (40:60, vol/vol). The electrospray ionization (ESI) source of the mass spectrometer was operated in positive ion mode for multi-reaction monitoring, with the following ion source parameters: ion spray voltage 4,500 V, collision gas 5 psi, ion source gas1 50 psi, ion source gas2 55 psi, curtain gas 20 psi, source temperature 400°C.
Additionally, the plasma concentration–time data of amphenmulin in each individual were further analyzed using the non-compartmental method in Phoenix 8.1 (Certara, USA) to calculate pharmacokinetic parameters, in which the area under the curve (AUC) was calculated using the log-linear trapezoidal method, and the results were reported as mean ± standard deviation (SD).

[2] = test system: M. gallisepticum strain S6; assay: Static time-kill curves and Sigmoid Emax fit of kill rate; type: cell-based, Mycoplasma gallisepticum; conditions: for EC50: Mycoplasmoides gallisepticum, read-out: EC50 (concentration at half-maximal kill rate); for decrease of mycoplasma counts / type of effect: static; for decrease of mycoplasma counts: within 48 h
Protocol: Based on the MIC value from broth microdilution method, 7 mL blank medium, 0.2 mL amphenmulin solution, and 0.8 mL M. gallisepticum suspension were taken into 10-mL Celine bottles to make the final mycoplasma count of 10^7 CFU/mL, as well as final concentrations of amphenmulin of 1, 2, 4, 6, 8, 16, 32, and 64 MIC, respectively. Growth control (without drug) and negative control (blank medium) were also set up for culture. Then at 0, 6, 9, 12, 24, 36, and 48 h, 100 µL of each culture was taken for counting using the aforementioned method, with a lower limit of 100 CFU/mL. The experiment was repeated three times.
The efficacy of amphenmulin against M. gallisepticum was measured by the kill rate per unit of time. Considering the growth of M. gallisepticum observed in preliminary experiments, this study selected seven time periods of 0–24, 0–36, 0–48, 6–24, 6–36, 6–48, and 12–48 h to calculate the kill rates of amphenmulin. The Sigmoid Emax model in Phoenix was used to fit the relationship between mean kill rate and drug concentration, which is shown below:
E, kill rate of amphenmulin against M. gallisepticum within a period; E0, change rate of M. gallisepticum in the control group (without drug); Emax, maximum kill rate within a period; Ce, concentration of amphenmulin; EC50, drug concentration at half-maximal kill rate; N, Hill coefficient, reflecting the slope of the kill rate–concentration curve.

[3] = test system: methicillin-resistant Staphylococcus aureus (MRSA); conditions: cited from earlier work
[4] = yellow-feathered broilers, plasma, 20 mg/kg bw., IM
[5] = yellow-feathered broilers, plasma, 20 mg/kg bw., IV
[6] = yellow-feathered broilers, plasma, 20 mg/kg bw., PO

With C=C[C@]1(C)C[C@@H](OC(=O)CSc2ccccc2N)[C@]2(C)[C@H](C)CC[C@]3(CCC(=O)[C@H]32)[C@@H](C)[C@@H]1O [amphenmulin, 22-(2-amino-phenylsulfanyl)-22-deoxypleuromutilin] the T1/2Ke ([1]; 20 mg/kg bw., IM) was 5.50 ± 1.43 h, the T1/2Ke ([1]; 20 mg/kg bw., IV, 20 mg/kg) was 2.13 h and 2.13 ± 0.63 h and the T1/2Ke ([1]; 20 mg/kg bw., PO) was 2.60 ± 0.87 h. The “oral absorption rate constant (Ka)” value ([1]; oral, residual method) was “approximately 3.15 1/h”, the Tmax ([1]; yellow-feathered broilers, chicken, plasma, other: oral and intramuscular, 20 mg/kg bw., two extravascular routes (oral and intramuscular), read-out: time to peak levels after administration) was less than 0.5 h and the AUC(0-inf) [1, 4] was 9850 ± 2720 ng·h/mL. It also gave an AUC(0-t) [1, 4] of 9160 ± 2650 ng·h/mL, an MRT [1, 4] of 7.89 ± 2.75 h and a k el [1, 4] of 3.61e-05 s⁻¹. The Cmax [1, 4] was 1930 ± 480 ng/mL, the bioavailability [1, 4] was 52.1% and the Tmax ([1]; yellow-feathered broilers, plasma, 20 mg/kg bw., IM, read-out: Tmax) was 0.38 ± 0.2 h. It also gave an AUC(0-inf) [1, 5] of 18900 ± 6030 ng·h/mL, an AUC(0-t) [1, 5] of 18800 ± 6090 ng·h/mL and an MRT [1, 5] of 3.13 ± 1.05 h. The clearance [1, 5] was 19.5 mL/min/kg, the k el [1, 5] was 9.72e-05 s⁻¹ and the Vd ([1]; yellow-feathered broilers, plasma, 20 mg/kg bw., IV, read-out: Vss) was 3.64 ± 1.58 L/kg. The AUC(0-inf) [1, 6] was 1110 ± 430 ng·h/mL, the AUC(0-t) [1, 6] was 1060 ± 400 ng·h/mL and the MRT [1, 6] was 2.98 ± 1.05 h. It also gave a k el [1, 6] of 8.06e-05 s⁻¹, a Cmax [1, 6] of 730 ± 360 ng/mL and a bioavailability [1, 6] of 5.88%. The Tmax ([1]; yellow-feathered broilers, plasma, 20 mg/kg bw., PO, read-out: Tmax) was 0.25 ± 0.11 h, the EC50 ([2]; S6, period 0–24 h) was 0.0325 µg/mL (≈ 0.0669 µM) and the EC50 ([2]; S6, period 0–36 h) was 0.0914 µg/mL (≈ 0.188 µM). For the same compound, the EC50 ([2]; S6, period 0–48 h) was 0.913 µg/mL (≈ 1.88 µM), the EC50 ([2]; S6, period 6–24 h) was 0.0082 µg/mL (≈ 0.0169 µM) and the EC50 ([2]; S6, period 6–36 h) was 0.0053 µg/mL (≈ 0.0109 µM). The EC50 ([2]; S6, period 6–48 h) was 0.0526 µg/mL (≈ 0.108 µM), the EC50 ([2]; S6, period 12–48 h) was 0.524 µg/mL (≈ 1.08 µM) and the “Emax (maximum kill rate)” value ([2]; period 0–24 h) was 0.1261 h⁻¹. The “Emax (maximum kill rate)” value ([2]; period 0–36 h) was 0.1817 h⁻¹, the “Emax (maximum kill rate)” value ([2]; period 0–48 h) was 0.3277 h⁻¹ and the “Emax (maximum kill rate)” value ([2]; period 6–24 h) was 0.0805 h⁻¹. The “Emax (maximum kill rate)” value ([2]; period 6–36 h) was 0.0821 h⁻¹, the “Emax (maximum kill rate)” value ([2]; period 6–48 h) was 0.1743 h⁻¹ and the “Emax (maximum kill rate)” value ([2]; period 12–48 h) was 0.2880 h⁻¹. For the same compound, the “decrease of mycoplasma counts” value ([2]; 1 MIC) was 0.44 Log10CFU/mL, the type of effect ([2]; 2–32 MIC) was “bacteriostatic effect” and the “decrease of mycoplasma counts” value ([2]; 2–32 MIC) was 0.57–2.7 Log10CFU/mL. The type of effect ([2]; 64 MIC) was “bactericidal effect”, the “decrease of mycoplasma counts” value ([2]; 64 MIC) was 3.85 Log10CFU/mL and the “antibacterial activity against MRSA compared with tiamulin” value [3] was “better antibacterial activity”. The “static kill curve against MRSA, character of effect” value [3] was “more time-dependent tendency and bacteriostatic effects”.
